Laboratory results from patent US20030162300A1, “Galactomannan-oligosaccharides and methods for the production and use thereof” (priority 1999, published 2003).
Each block holds one compound with its values, some of them ahead of it.

Columns and labels:
[1] = system: Reh(pre-B) on the colon cell line HT 29; assay: Adhesion assay: Reh (pre-B) on the colon cell line HT 29; type: cell-based; settings: 10 μg/batch; for Mittelwert (%) (mean value), specific adhesion: percentage of the 100% value; for Index: relative to without carbohydrate = 1.00
Protocol: In the adhesion assay, the influence of galactomanno-oligosaccharides according to the present invention on the adhesion of B cell lines (for example, Reh) and normal human B lymphocytes to epithelial cells (colon tumor line HT 29) was measured. In the overlay assay used, the lymphocytes were intracellularly marked with calcein so as to make it possible to carry out the measurement by means of fluorometry.
First, coating with the adherent colon epithelial cell one (HT 29) in microtiter plates (24-hole Costar® plates) took place, with incubation (37° C., overnight) until a confluent bed has formed. This is done as much as possible in a serum-free medium Inoculum: 1×10^4 cells. Before the subsequent assay was carried out, the adherent cells were washed three times with PBS(phosphate-buffered physiological saline solution) and blocked for 1 h at room temperature with PBS+1% bovine serum albumin (BSA).
The untreated B cell lines or isolated B lymphocytes to be tested were marked with fluorescent calcein (1×10^7 cells in 2 mL of RPMI medium+HEPES+10 μL of calcein AM, 30 min, 37° C.; subsequently washed 2× with HBSS (Hanks buffer)+0.25% BSA) and 1×10^6 cells in 0.5 mL of PBS+0.25% […] per hole were incubated for 1 h. The culture plate was placed on a shaker for 10 sec, 0.5 mL of 0.2% glutaraldehyde in PBS+0.2% BSA per hole were added and incubated for 10 min on the shaker. The fluorescence of the plate was measured in a fluorescence measuring device ([…]).
The first measurement corresponds to the 100% value. Subsequently, the plate was washed four times and again measured. This measurement corresponds to the specific adhesion which is expressed as a percentage of the 100% value minus the autofluorescence value (unmarked cells). The control substances used were galactose and glucose.

[2] = system: Streptococcus mutans DSM 20523; assay: Stability in the mouth: incubation with Streptococcus mutans; type: in vitro ADME; settings: 1% in 20 mM carbonate buffer pH 7.5, 37° C., 2 h (120 min)
Protocol: (§1) Streptococcus mutans and Streptococcus sobrinus were cultivated for 24 h in liquid DSM medium 92 under anaerobic conditions at 37° C. At the end of the logarithmic growth phase, the cells were centrifuged off (15 min, 4000×g) and resuspended in 10% of the original 20 mM carbonate buffer, pH 7.5. Subsequently, 9 mL of a solution of the oligosaccharides according to the present invention (1% in 20 mM carbonate buffer, pH 7.5) were inoculated with 1 mL of the bacterial suspension and incubated for 2 h at 37° C.

[3] = system: Streptococcus sobrinus NCTC 10922; assay: Stability in the mouth: incubation with Streptococcus sobrinus; type: in vitro ADME; settings: 1% in 20 mM carbonate buffer pH 7.5, 37° C., 2 h (120 min)
Protocol: as §1

[4] = system: fresh tooth plaque (mixed culture); assay: Stability in the mouth: incubation with fresh tooth plaque; type: in vitro ADME, male volunteers; settings: 10 mg plaque in 1 mL 1% solution, pH 7.5, 37° C., 2 h (120 min)
Protocol: Plaque samples were obtained from three male volunteers who had not brushed their teeth for three days, and in each case, 10 mg of the plaque were suspended in 1 mL of oligosaccharide solution (1% in 20 mM carbonate buffer, pH 7.5). In the course of the two-hour-long incubation time at 37° C., samples were taken and tested for their oligosaccharide content.

[5] = Stability in the stomach: hydrolysis rate at pH 1.0 and 2.0; type: physicochemical; settings: 37° C.
Protocol: For this purpose, 1% galactomanno-oligosaccharide solutions were incubated for 3 h at a pH value of 1.0 (0.1 M HCl) and a pH value of 2.0 (0.01 M HCl) and a temperature of 37° C. After 60, 120, and 180 min, samples were taken from the reaction batch and analyzed by means of HPAEC. The control substances used were saccharose and 1-kestose.

[6] = biological target: T1, saccharase/isomaltase (SI complex) (Sus scrofa, UniProt P56729); assay: Cleavability by alpha-glucosidases of the small intestine, SI complex; type: in vitro ADME, pigs; settings: SI enzyme complex 0.7 U, 1% in TRA buffer pH 7.0, 2 h, 37° C.
T1 construct: were isolated from the thin intestine of pigs using the method described by H. Heymann; from tissue; host or cells: pig small intestine (mucous membrane)
T1 sequence (P56729 with tags, fused parts or gaps): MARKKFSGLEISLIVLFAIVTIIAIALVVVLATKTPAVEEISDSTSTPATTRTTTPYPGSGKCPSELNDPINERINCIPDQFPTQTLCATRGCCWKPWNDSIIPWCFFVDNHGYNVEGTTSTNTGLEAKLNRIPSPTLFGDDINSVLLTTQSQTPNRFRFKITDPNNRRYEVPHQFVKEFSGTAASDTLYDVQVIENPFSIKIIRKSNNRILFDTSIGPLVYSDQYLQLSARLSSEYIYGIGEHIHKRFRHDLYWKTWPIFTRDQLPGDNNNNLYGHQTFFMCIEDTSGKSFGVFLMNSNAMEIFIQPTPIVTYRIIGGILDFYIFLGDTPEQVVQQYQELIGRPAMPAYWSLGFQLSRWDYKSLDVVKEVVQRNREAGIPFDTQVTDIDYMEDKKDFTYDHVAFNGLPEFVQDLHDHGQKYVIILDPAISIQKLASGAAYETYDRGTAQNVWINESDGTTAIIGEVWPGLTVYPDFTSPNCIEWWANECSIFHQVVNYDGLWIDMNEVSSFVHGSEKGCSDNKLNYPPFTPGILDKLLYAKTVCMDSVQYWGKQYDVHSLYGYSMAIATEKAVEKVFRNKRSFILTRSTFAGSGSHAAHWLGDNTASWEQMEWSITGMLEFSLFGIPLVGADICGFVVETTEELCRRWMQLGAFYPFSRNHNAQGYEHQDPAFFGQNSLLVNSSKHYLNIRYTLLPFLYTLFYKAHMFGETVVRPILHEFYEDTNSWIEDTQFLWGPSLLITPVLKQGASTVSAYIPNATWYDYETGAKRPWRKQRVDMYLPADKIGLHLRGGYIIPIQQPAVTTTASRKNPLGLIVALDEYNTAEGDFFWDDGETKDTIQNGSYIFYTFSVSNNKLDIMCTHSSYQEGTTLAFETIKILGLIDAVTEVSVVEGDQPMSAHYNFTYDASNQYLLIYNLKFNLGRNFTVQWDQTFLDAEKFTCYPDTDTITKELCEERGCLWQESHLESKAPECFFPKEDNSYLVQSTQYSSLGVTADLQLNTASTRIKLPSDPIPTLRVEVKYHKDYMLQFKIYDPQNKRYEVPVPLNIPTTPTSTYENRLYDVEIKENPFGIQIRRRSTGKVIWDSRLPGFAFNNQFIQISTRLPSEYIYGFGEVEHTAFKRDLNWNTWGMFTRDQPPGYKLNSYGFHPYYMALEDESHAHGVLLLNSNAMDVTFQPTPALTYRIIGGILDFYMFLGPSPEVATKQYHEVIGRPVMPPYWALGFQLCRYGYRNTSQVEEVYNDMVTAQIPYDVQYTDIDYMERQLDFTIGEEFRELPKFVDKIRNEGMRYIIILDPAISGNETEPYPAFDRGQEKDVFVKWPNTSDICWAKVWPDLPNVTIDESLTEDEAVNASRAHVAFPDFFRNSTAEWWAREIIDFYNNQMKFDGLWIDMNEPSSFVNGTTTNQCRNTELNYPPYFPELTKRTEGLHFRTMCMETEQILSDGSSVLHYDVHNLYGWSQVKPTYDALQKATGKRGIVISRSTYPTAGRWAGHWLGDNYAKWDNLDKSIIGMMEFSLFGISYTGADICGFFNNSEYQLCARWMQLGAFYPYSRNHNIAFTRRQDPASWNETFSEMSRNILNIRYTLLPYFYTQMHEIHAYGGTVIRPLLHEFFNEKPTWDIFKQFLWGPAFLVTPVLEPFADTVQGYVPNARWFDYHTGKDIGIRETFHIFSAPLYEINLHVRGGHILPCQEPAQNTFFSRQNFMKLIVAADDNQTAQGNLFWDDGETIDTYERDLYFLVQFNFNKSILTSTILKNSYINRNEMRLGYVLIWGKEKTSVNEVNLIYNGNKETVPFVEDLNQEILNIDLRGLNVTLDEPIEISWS
Description: In vivo, the enzyme complexes saccharase/isomaltase and glucoamylase/maltase which are present in the mucous membranes of the small intestine ensure that after their passage into the small intestine, the disaccharides maltose and saccharose and in part also the malto-oligosaccharides are cleaved to form monosaccharides and as such are able to reach the circulatory system via the intestinal wall.
The stability of the galactomanno-oligosaccharides according to the present invention against these enzymes was tested as follows:
The enzyme complexes saccharase/isomaltase (SI complex) and glucoamylase/maltase (GM complex) were isolated from the thin intestine of pigs using the method described by H. Heymann (dissertation, Hannover, 1991).
The cleavability of the galactomanno-oligosaccharides according to the present invention by means of a-glucosidases present in the small intestine was determined as follows:
Triethanolamine (TRA) buffer, 0.1 M, pH 7.0
Galactomanno-oligosaccharides, 1% solution in TRA buffer
Maltose and saccharose as control substances, 1% in TRA buffer […]
At t=0, 0.7 U of the enzyme complex saccharase/isomaltase or glucoamylase/maltase were added to 1.2 mL of the carbohydrate solution which had been heated to a temperature of 37° C., mixed, and incubated at 37° C. […] The monosaccharides formed as well as the test substances used were quantitatively determined by means of HPAEC.

[7] = system: Staphylococcus aureus, 2 strains; assay: Adhesion of pathogenic microorganisms to human uroepithelial cells, Staphylococcus aureus; type: cell-based; settings: human uroepithelial cells preincubated with the carbohydrate
Protocol: (§2) Human uroepithelial cells obtained by means of centrifugation from first morning urine
(§3) Staphylococcus aureus, 2 strains, and E. coli, 2 strains, each as suspension with 10^9 microorganisms/mL
(§4) The epithelial cells and the suspension of microorganisms were combined and incubated for 30 min at 37° C. Subsequently, the epithelial cells were separated from the nonadherent microorganisms by means of membrane filtration (8 μ). The filters were repeatedly washed and placed into physiological saline solution, and the epithelial cells were suspended in said solution. After centrifuging the suspension in saline solution, the pellet was placed on a microscopic slide and stained according to May-Grünwald and Giemsa. The number of the microorganisms adhering to 50 epithelial cells as counted. The number represented the blank reading. Epithelial cells without the addition of a suspension of microorganisms served as the control.
(§5) In the main test, epithelial cells were first incubated for 1, 2, and 3 h with galactomanno-oligosaccharide solutions of different concentrations. They were subsequently combined with the suspension of microorganisms and treated as described above. The number of microorganisms adhering to 50 epithelial cells represented the measured value.

E. coli, 2 strains = assay: Adhesion of pathogenic microorganisms to human uroepithelial cells, E. coli; type: cell-based; settings: human uroepithelial cells preincubated with the carbohydrate
Protocol: as §2, §3, §4, §5

monocytes = assay: Phagocytosis assay, monocytes; type: cell-based; settings: E. coli nonopsonized, 100 μg/batch, whole blood
Protocol: (§6) The influence of the galactomanno-oligosaccharides according to the present invention on the function of the phagocytes (mono-, granulocytes) can be determined by means of phagocytosis assays. During the phagocytosis stimulation, the phagocytes were first incubated with galactomanno-oligosaccharides (100 μg of glycan/0. 11 mL of whole blood, 37° C., 10 min). A corresponding blank was incubated for 10 min in an ice bath. Subsequently, the actual phagocytosis test was carried out under the following conditions:
(§7) 0.11 mL of the preliminary incubation solution was allowed to stand for 10 min in the ice bath; subsequently, 0.01 mL of nonopsonized E. coli (fluorescein isothiocyanate (FITC) marked, 10^9 per mL, ORPEGEN) or 0.01 mL of nonopsonized Staphylococcus aureus (15×10^6 per mL, FITC marked, MOLECULAR PROBES) were added. The batches were incubated (double determinations) for 10 min at 37° C. The batches were washed twice with 3 mL of washing buffer (ORPEGEN) each and centrifuged at 250×g for 5 min at 4° C. […]
(§8) The measurement was carried out in the flow cytometer (excitation: 488 nm, emission FL-1: 520 nm); monocytes and granulocytes can be distinguished from each other without separation (forward light scatter (FSC) versus ([…]) (sideways light scatter). The results are expressed as a percentage of the phagocytosis-positive cells (see Table VI below). […]

granulocytes = assay: Phagocytosis assay, granulocytes; type: cell-based; settings: 100 μg/batch, whole blood
Protocol: as §6, §7, §8

[8] = system: resected colon pieces (distal segment); assay: Mucus secretion of resected colon pieces; type: cell-based; settings: pig colon pieces, 5 h, 37°, Hanks buffer; galactomanno-oligosaccharides 1%
Protocol: After thoroughly cleaning the resected colon of a freshly slaughtered pig, pieces measuring 1 cm^2 were cut from the distal segment of said colon. The pieces thus prepared were incubated, while stirring and fumigating with oxygen, for 5 h at a temperature of 37° in Hanks buffer to which chloramphenicol and ampicillin (50 μg/mL each) had been added. The buffer additionally contained 1% of the galactomanno-oligosaccharides produced according to the present invention and to be tested for their stimulating effect on the mucus secretion. As a control, 10 colon segments were used in each batch to be tested. One of the batches contained hydrocortisone which is normally used in the treatment of inflammatory intestinal diseases.
As a measure for an increase in the mucus secretion, the increase in the total carbohydrate content in the supernatant portion was measured. For this purpose, during the incubation, samples were collected at various times, and 20 μL of resorcin solution (6 mg/mL) and 100 μL of 75% sulfuric acid were added to 10 μL of each sample, and after an incubation time of 60 min at 80° C., the extinction was measured at λ=450 nm.

Structure (SMILES): O=C[C@H](O)[C@@H](O)[C@H](O)[C@H](O)CO [D-Glucose]
- Mittelwert (%) (mean value), specific adhesion [1]: 47%
- Index [1]: 1.11

- cleavage/hydrolysis of the carbohydrate [2]: completely hydrolyzed
- cleavage/hydrolysis of the carbohydrate [3]: completely hydrolyzed
- cleavage/hydrolysis of the carbohydrate [4]: completely hydrolyzed
- Hydrolysis rate in % ([5]; pH 1 (0.1 M HCl), 60 min): 24%
- Hydrolysis rate in % ([5]; pH 1 (0.1 M HCl), 120 min): 55%
- Hydrolysis rate in % ([5]; pH 1 (0.1 M HCl), 180 min): 61%
- Hydrolysis rate in % ([5]; pH 2 (0.01 M HCl), 60 min): 1%
- Hydrolysis rate in % ([5]; pH 2 (0.01 M HCl), 120 min): 2%
- Hydrolysis rate in % ([5]; pH 2 (0.01 M HCl), 180 min): 7%
- Hydrolyserate (%) (Hydrolysis rate) [6]: 98%
Structure (SMILES): OC[C@H]1O[C@@](CO)(O[C@H]2O[C@H](CO)[C@@H](O)[C@H](O)[C@H]2O)[C@@H](O)[C@@H]1O [Saccharose, saccharose]

Structure (SMILES): OC[C@H]1O[C@H](O[C@]2(CO)O[C@H](CO[C@H]3O[C@H](CO)[C@@H](O)[C@H](O)[C@H]3O)[C@@H](O)[C@@H]2O)[C@H](O)[C@@H](O)[C@@H]1O [isomelzitose]
- number of microorganisms adhering to the epithelial cells [7]: not reduced
- number of microorganisms adhering to the epithelial cells (E. coli, 2 strains): not reduced

Structure (SMILES): O=C[C@H](O)[C@@H](O)[C@@H](O)[C@H](O)CO [D-Galactose]
- Mittelwert (%) (mean value), specific adhesion [1]: 51%
- Index [1]: 1.12

- Hydrolysis rate in % ([5]; pH 1 (0.1 M HCl), 60 min): 90%
- Hydrolysis rate in % ([5]; pH 1 (0.1 M HCl), 120 min): 100%
- Hydrolysis rate in % ([5]; pH 1 (0.1 M HCl), 180 min): 100%
- Hydrolysis rate in % ([5]; pH 2 (0.01 M HCl), 60 min): 16%
- Hydrolysis rate in % ([5]; pH 2 (0.01 M HCl), 120 min): 30%
- Hydrolysis rate in % ([5]; pH 2 (0.01 M HCl), 180 min): 43%
Structure (SMILES): OC[C@H]1O[C@@](CO)(OC[C@@]2(O[C@H]3O[C@H](CO)[C@@H](O)[C@H](O)[C@H]3O)O[C@H](CO)[C@@H](O)[C@@H]2O)[C@@H](O)[C@@H]1O [1-Kestose, 1-kestose]

Structure (SMILES): OC[C@H]1O[C@@](CO)(OC[C@@]2(OC[C@@]3(O[C@H]4O[C@H](CO)[C@@H](O)[C@H](O)[C@H]4O)O[C@H](CO)[C@@H](O)[C@@H]3O)O[C@H](CO)[C@@H](O)[C@@H]2O)[C@@H](O)[C@@H]1O [nystose]
- number of microorganisms adhering to the epithelial cells [7]: not reduced
- number of microorganisms adhering to the epithelial cells (E. coli, 2 strains): not reduced

Structure (SMILES): OC[C@H]1O[C@H](OC[C@H]2O[C@H](O[C@]3(CO)O[C@H](CO)[C@@H](O)[C@@H]3O)[C@H](O)[C@@H](O)[C@@H]2O)[C@H](O)[C@@H](O)[C@H]1O [raffinose]
- number of microorganisms adhering to the epithelial cells [7]: not reduced
- number of microorganisms adhering to the epithelial cells (E. coli, 2 strains): not reduced
- Monocyten (% positive Zellen), phagocytosis-positive cells (monocytes): 22.0%
- Granulocyten (% positive Zellen), phagocytosis-positive cells (granulocytes; E. coli nonopsonized): 17.0%
- Granulocyten (% positive Zellen), phagocytosis-positive cells (granulocytes; Staph. aureus nonopsonized): 30.0%

Structure (SMILES): C[C@]12CCC(=O)C=C1CC[C@@H]1[C@@H]2[C@@H](O)C[C@@]2(C)[C@H]1CC[C@]2(O)C(=O)CO [hydrocortisone]
- increase in the mucus secretion compared to the control (total carbohydrate in supernatant) [8]: approximately 5.3 -fold
